In patent publication US9708314B2, “Heterocyclic amide compound” (NISSAN CHEMICAL INDUSTRIES, LTD., priority 2013, dated 2017):

Tests used:
Assay type in all cases: in vivo
[1] = tested on: directly sowed Oryza sativa; experiment: Test Example 3: effect on crop by application to foliage (Wagner pot, water depth 0.1-0.5 cm); conditions: Nineteenth Table; application to foliage; application herbicide amount 320 g/ha
Summary of the method: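 Post-emergence foliar application at a stated g/ha rate to plants grown 14 days from seed in alluvial soil, greenhouse 25–30 °C. Visual score after 3 weeks: 0 (≤5% effect) through 5 (≥90%).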

Lolium multiflorum Lam. = experiment: Test Example 4: herbicidal effect by application to foliage (diluvial soil, plastic box); conditions: for K: herbicidal effect on Lolium multiflorum Lam.: application to foliage, application herbicide amount 320 g/ha; for K (Lolium multiflorum Lam.) herbicidal effect grade: Application herbicide amount 320 g/ha, foliage application
Summary of the method: (§1)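 Plants were grown in sterilized diluvial soil in a greenhouse at 25-30° C for 14 days, then sprayed on stems and leaves with water-diluted emulsion formulation at set rates in g/ha. Weed control and crop injury were scored 3 weeks after treatment on a 0-5 herbicidal-ratio scale, from 0 (≤5%) to 5 (≥90%).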

Abutilon theophrasti = experiment: as above; conditions: for M: herbicidal effect on Abutilon theophrasti: application to foliage, application herbicide amount 320 g/ha; for M (Abutilon theophrasti) herbicidal effect grade: Application herbicide amount 320 g/ha, foliage application
Summary of the method: as §1

Chenopodium album = experiment: as above; conditions: for O: herbicidal effect on Chenopodium album: application to foliage, application herbicide amount 320 g/ha; for O (Chenopodium album) herbicidal effect grade: Application herbicide amount 320 g/ha, foliage application
Summary of the method: as §1

Apera spica-venti. = experiment: as above; conditions: for L: herbicidal effect on Apera spica-venti.: application to foliage, application herbicide amount 320 g/ha; for L (Apera spica-venti.) herbicidal effect grade: Application herbicide amount 320 g/ha, foliage application
Summary of the method: as §1

Stellaria media = experiment: as above; conditions: for P: herbicidal effect on Stellaria media: application to foliage, application herbicide amount 320 g/ha; for P (Stellaria media) herbicidal effect grade: Application herbicide amount 320 g/ha, foliage application
Summary of the method: as §1

Galium spurium = experiment: as above; conditions: for Q: herbicidal effect on Galium spurium: application to foliage, application herbicide amount 320 g/ha; for Q (Galium spurium) herbicidal effect grade: Application herbicide amount 320 g/ha, foliage application
Summary of the method: as §1

Avena fatua = experiment: as above; conditions: for I: herbicidal effect on Avena fatua: application to foliage, application herbicide amount 320 g/ha; for I (Avena fatua) herbicidal effect grade: Application herbicide amount 320 g/ha, foliage application
Summary of the method: as §1

[2] = tested on: Echinochloa crus-galli var. crus-galli; experiment: as above; conditions: for H: herbicidal effect on Echinochloa crus-galli var. crus-galli: application to foliage, application herbicide amount 320 g/ha; for H (Echinochloa crus-galli var. crus-galli) herbicidal effect grade: Application herbicide amount 320 g/ha, foliage application
Summary of the method: as §1

Alopecurus myosuroides = experiment: as above; conditions: for J: herbicidal effect on Alopecurus myosuroides: application to foliage, application herbicide amount 320 g/ha; for J (Alopecurus myosuroides) herbicidal effect grade: Application herbicide amount 320 g/ha, foliage application
Summary of the method: as §1

Digitaria ciliaris = experiment: as above; conditions: for F: herbicidal effect on Digitaria ciliaris: application to foliage, application herbicide amount 320 g/ha; for F (Digitaria ciliaris) herbicidal effect grade: Application herbicide amount 320 g/ha, foliage application
Summary of the method: as §1

Amaranthus retroflexus = experiment: as above; conditions: for N: herbicidal effect on Amaranthus retroflexus: application to foliage, application herbicide amount 320 g/ha; for N (Amaranthus retroflexus) herbicidal effect grade: Application herbicide amount 320 g/ha, foliage application
Summary of the method: as §1

Veronica persica = experiment: as above; conditions: for R: herbicidal effect on Veronica persica: application to foliage, application herbicide amount 320 g/ha; for R (Veronica persica) herbicidal effect grade: Application herbicide amount 320 g/ha, foliage application
Summary of the method: as §1

Setaria viridis = experiment: as above; conditions: for G: herbicidal effect on Setaria viridis: application to foliage, application herbicide amount 320 g/ha; for G (Setaria viridis) herbicidal effect grade: Application herbicide amount 320 g/ha, foliage application
Summary of the method: as §1

Row | SMILES | b (effect on crop grade) [1] | K: herbicidal effect on Lolium multiflorum Lam. (Lolium multiflorum Lam.) | M: herbicidal effect on Abutilon theophrasti (Abutilon theophrasti) | O: herbicidal effect on Chenopodium album (Chenopodium album) | L: herbicidal effect on Apera spica-venti. (Apera spica-venti.) | P: herbicidal effect on Stellaria media (Stellaria media) | Q: herbicidal effect on Galium spurium (Galium spurium) | K (Lolium multiflorum Lam.) herbicidal effect grade (Lolium multiflorum Lam.) | M (Abutilon theophrasti) herbicidal effect grade (Abutilon theophrasti) | O (Chenopodium album) herbicidal effect grade (Chenopodium album) | L (Apera spica-venti.) herbicidal effect grade (Apera spica-venti.) | P (Stellaria media) herbicidal effect grade (Stellaria media) | Q (Galium spurium) herbicidal effect grade (Galium spurium) | I (Avena fatua) herbicidal effect grade (Avena fatua) | H (Echinochloa crus-galli var. crus-galli) herbicidal effect grade [2] | J (Alopecurus myosuroides) herbicidal effect grade (Alopecurus myosuroides) | F (Digitaria ciliaris) herbicidal effect grade (Digitaria ciliaris) | N (Amaranthus retroflexus) herbicidal effect grade (Amaranthus retroflexus) | R (Veronica persica) herbicidal effect grade (Veronica persica) | G (Setaria viridis) herbicidal effect grade (Setaria viridis) | further results
1 | COCc1nnc2c(C(=O)Nc3nnnn3C)ccc(C(F)(F)F)n12 [2-010, 3-(Methoxymethyl)-N-(1-methyl-1H-tetrazol-5-yl)-5-(trifluoromethyl)-[1,2,4]triazol o[4,3-a]pyridine-8-carboxamide] | 5 (Herbicidal ratio of 90% or more (almost completely withered)) | 3 (Herbicidal ratio of 40% or more and less than 70%) | 5 (Herbicidal ratio of 90% or more (almost completely withered)) | 5 (Herbicidal ratio of 90% or more (almost completely withered)) | 2 (Herbicidal ratio of 20% or more and less than 40%) | 5 (Herbicidal ratio of 90% or more (almost completely withered)) | 4 (Herbicidal ratio of 70% or more and less than 90%) | – | – | – | – | – | – | – | – | – | – | – | – | – | I: herbicidal effect on Avena fatua (Avena fatua): 4 (Herbicidal ratio of 70% or more and less than 90%); H: herbicidal effect on Echinochloa crus-galli var. crus-galli [2]: 5 (Herbicidal ratio of 90% or more (almost completely withered)); J: herbicidal effect on Alopecurus myosuroides (Alopecurus myosuroides): 3 (Herbicidal ratio of 40% or more and less than 70%); F: herbicidal effect on Digitaria ciliaris (Digitaria ciliaris): 4 (Herbicidal ratio of 70% or more and less than 90%); N: herbicidal effect on Amaranthus retroflexus (Amaranthus retroflexus): 5 (Herbicidal ratio of 90% or more (almost completely withered)); R: herbicidal effect on Veronica persica (Veronica persica): 5 (Herbicidal ratio of 90% or more (almost completely withered)); G: herbicidal effect on Setaria viridis (Setaria viridis): 3 (Herbicidal ratio of 40% or more and less than 70%)
2 | CCC(C)c1nnc2c(C(=O)Nc3nnnn3C)ccc(C(F)(F)F)n12 (stereo not shown) [2-016] | 5 (Herbicidal ratio of 90% or more (almost completely withered)) | 4 (Herbicidal ratio of 70% or more and less than 90%) | 5 (Herbicidal ratio of 90% or more (almost completely withered)) | 5 (Herbicidal ratio of 90% or more (almost completely withered)) | 4 (Herbicidal ratio of 70% or more and less than 90%) | 5 (Herbicidal ratio of 90% or more (almost completely withered)) | 3 (Herbicidal ratio of 40% or more and less than 70%) | – | – | – | – | – | – | – | – | – | – | – | – | – | I: herbicidal effect on Avena fatua (Avena fatua): 4 (Herbicidal ratio of 70% or more and less than 90%); H: herbicidal effect on Echinochloa crus-galli var. crus-galli [2]: 5 (Herbicidal ratio of 90% or more (almost completely withered)); J: herbicidal effect on Alopecurus myosuroides (Alopecurus myosuroides): 4 (Herbicidal ratio of 70% or more and less than 90%); F: herbicidal effect on Digitaria ciliaris (Digitaria ciliaris): 5 (Herbicidal ratio of 90% or more (almost completely withered)); N: herbicidal effect on Amaranthus retroflexus (Amaranthus retroflexus): 5 (Herbicidal ratio of 90% or more (almost completely withered)); R: herbicidal effect on Veronica persica (Veronica persica): 5 (Herbicidal ratio of 90% or more (almost completely withered)); G: herbicidal effect on Setaria viridis (Setaria viridis): 5 (Herbicidal ratio of 90% or more (almost completely withered))
3 | CCCSc1nnc2c(C(=O)Nc3nnco3)ccc(C(F)(F)F)n12 [1-108] | 1 (Herbicidal ratio of 5% or more and less than 20%) | – | – | – | – | – | – | 2 (Herbicidal ratio of 20% or more and less than 40%) | 4 (Herbicidal ratio of 70% or more and less than 90%) | 5 (Herbicidal ratio of 90% or more (almost completely withered)) | 2 (Herbicidal ratio of 20% or more and less than 40%) | 5 (Herbicidal ratio of 90% or more (almost completely withered)) | 3 (Herbicidal ratio of 40% or more and less than 70%) | 2 (Herbicidal ratio of 20% or more and less than 40%) | 5 (Herbicidal ratio of 90% or more (almost completely withered)) | 1 (Herbicidal ratio of 5% or more and less than 20%) | 5 (Herbicidal ratio of 90% or more (almost completely withered)) | 5 (Herbicidal ratio of 90% or more (almost completely withered)) | 5 (Herbicidal ratio of 90% or more (almost completely withered)) | 5 (Herbicidal ratio of 90% or more (almost completely withered)) | –
4 | Cc1nnc(NC(=O)c2ccc(C(F)(F)F)n3c(SCC4CC4)nnc23)o1 [1-115] | 0 (Herbicidal ratio of 5% or less (almost no effect)) | – | – | – | – | – | – | 1 (Herbicidal ratio of 5% or more and less than 20%) | 3 (Herbicidal ratio of 40% or more and less than 70%) | 5 (Herbicidal ratio of 90% or more (almost completely withered)) | 2 (Herbicidal ratio of 20% or more and less than 40%) | 4 (Herbicidal ratio of 70% or more and less than 90%) | 3 (Herbicidal ratio of 40% or more and less than 70%) | 2 (Herbicidal ratio of 20% or more and less than 40%) | 5 (Herbicidal ratio of 90% or more (almost completely withered)) | 2 (Herbicidal ratio of 20% or more and less than 40%) | 5 (Herbicidal ratio of 90% or more (almost completely withered)) | 4 (Herbicidal ratio of 70% or more and less than 90%) | 4 (Herbicidal ratio of 70% or more and less than 90%) | 5 (Herbicidal ratio of 90% or more (almost completely withered)) | –
5 | CCSc1nnc2c(C(=O)Nc3nnco3)ccc(C(F)(F)F)n12 [1-106] | 3 (Herbicidal ratio of 40% or more and less than 70%) | – | – | – | – | – | – | 3 (Herbicidal ratio of 40% or more and less than 70%) | 4 (Herbicidal ratio of 70% or more and less than 90%) | 5 (Herbicidal ratio of 90% or more (almost completely withered)) | 3 (Herbicidal ratio of 40% or more and less than 70%) | 5 (Herbicidal ratio of 90% or more (almost completely withered)) | 4 (Herbicidal ratio of 70% or more and less than 90%) | 4 (Herbicidal ratio of 70% or more and less than 90%) | 5 (Herbicidal ratio of 90% or more (almost completely withered)) | 1 (Herbicidal ratio of 5% or more and less than 20%) | 5 (Herbicidal ratio of 90% or more (almost completely withered)) | 5 (Herbicidal ratio of 90% or more (almost completely withered)) | 5 (Herbicidal ratio of 90% or more (almost completely withered)) | 5 (Herbicidal ratio of 90% or more (almost completely withered)) | –
